Measurements as given in paper PMC3163123 (Bioorganic & medicinal chemistry, 2011).

Tests used:
[1] = target: T1, recombinant wild-type HIV-1 IN (Human immunodeficiency virus type 1 group M subtype B, UniProt P12497); assay: biochemical; assay type: biochemical
[2] = target: T1, recombinant wild-type HIV-1 IN; assay: Integrase catalytic activity assay, 3′-processing; assay type: biochemical
H630 colon cancer cells = assay: MTT cytotoxicity assay; assay type: cell-based; conditions: at the concentration of up to 40 μM

Row | Structure (SMILES) | IC50 [1] | IC50 [2] | further results
1 | O=C(O)c1cccc(OCc2ccccc2)c1O [Compound 3a, 3-(Benzyloxy)-2-hydroxybenzoic acid] | > 100 µM | > 100 µM | –
2 | O=C(O)c1cccc(OCc2ccc(F)cc2)c1O [Compound 3b, 3-(4-Fluorobenzyloxy)-2-hydroxybenzoic acid] | > 100 µM | > 100 µM | –
3 | O=C(O)c1cccc(OCc2ccc3ccccc3c2)c1O [Compound 3c, 3-((Naphthalen-2-yl)methoxy)-2-hydroxybenzoic acid] | – | > 100 µM | –
4 | O=C(O)c1ccc(OCc2ccccc2)cc1O [Compound 3d, 4-(Benzyloxy)-2-hydroxybenzoic acid] | > 100 µM | > 100 µM | –
5 | O=C(O)c1ccc(OCc2ccc(F)cc2)cc1O [Compound 3e, 4-(4-Fluorobenzyloxy)-2-hydroxybenzoic acid] | > 100 µM | > 100 µM | –
6 | O=C(O)c1cc(OCc2ccccc2)ccc1O [Compound 3f, 5-(Benzyloxy)-2-hydroxybenzoic acid] | > 100 µM | > 100 µM | –
7 | O=C(O)c1cc(OCc2ccc(F)cc2)ccc1O [Compound 3g, 5-(4-Fluorobenzyloxy)-2-hydroxybenzoic acid] | > 100 µM | > 100 µM | –
8 | O=C(O)c1c(O)cccc1OCc1ccccc1 [Compound 3h, 2-(Benzyloxy)-6-hydroxybenzoic acid] | > 100 µM | > 100 µM | –
9 | O=C(O)c1c(O)cccc1OCc1ccc(F)cc1 [Compound 3i, 2-(4-Fluorobenzyloxy)-6-hydroxybenzoic acid] | > 100 µM | > 100 µM | –
10 | O=C(O)c1c(O)cccc1OCc1ccc2ccccc2c1 [Compound 3j, 2-((Naphthalen-2-yl)methoxy)-6-hydroxybenzoic acid] | – | > 100 µM | –
11 | O=C(NO)c1cccc(OCc2ccc(F)cc2)c1O [Compound 4a, 3-(4-fluorobenzyloxy)-N,2-dihydroxybenzamide] | > 100 µM | > 100 µM | –
12 | O=C(NO)c1ccc(OCc2ccc(F)cc2)cc1O [Compound 4b, 4-(4-fluorobenzyloxy)-N,2-dihydroxybenzamide] | – | > 100 µM | –
13 | O=C(NO)c1cc(OCc2ccc(F)cc2)ccc1O [Compound 4c, 5-(4-fluorobenzyloxy)-N,2-dihydroxybenzamide] | – | > 100 µM | –
14 | O=C(NO)c1c(O)cccc1OCc1ccc(F)cc1 [Compound 4d, 2-(4-fluorobenzyloxy)-N,6-dihydroxybenzamide] | – | > 100 µM | –
15 | O=C(NCc1ccc(F)cc1)c1cccc(O)c1O [Compound 5a, N-(4-Fluorobenzyl)-2,3-dihydroxybenzamide] | – | – | cytotoxicity in H630 cells (H630 colon cancer cells): not cytotoxic
16 | O=C(NCc1ccc(F)cc1)c1cccc(OCc2ccccc2)c1O [Compound 5b, 3-(Benzyloxy)-N-(4-fluorobenzyl)-2-hydroxybenzamide] | – | > 333 µM | cytotoxicity in H630 cells (H630 colon cancer cells): not cytotoxic
17 | O=C(NCc1cccc2ccccc12)c1cccc(O)c1O [Compound 5c, 2,3-Dihydroxy-N-(naphthalen-1-ylmethyl)benzamide] | – | > 100 µM | –

Row | Structure (SMILES) | IC50 [1] | IC50 [2] | further results
18 | O=C(NCc1ccc(F)c(F)c1)c1cccc(O)c1O [Compound 5d, N-(3,4-Difluorobenzyl)-2,3-dihydroxybenzamide] | – | > 100 µM | –
19 | O=C(Nc1ccc2[nH]ccc2c1)c1cccc(O)c1O [Compound 5g, 2,3-Dihydroxy-N-(1H-indol-5-yl)benzamide] | – | > 100 µM | –
20 | O=C(NCc1ccc(-c2cccs2)cc1)c1cccc(O)c1O [Compound 5j, 2,3-Dihydroxy-N-(4-(thiophen-2-yl)benzyl)benzamide] | – | > 100 µM | –
21 | O=C(NC1CCNCC1)c1cccc(O)c1O [Compound 5k, 2,3-Dihydroxy-N-(piperidin-4-yl)benzamide] | > 100 µM | > 100 µM | –
22 | O=C(NC1CCCCC1)c1cccc(O)c1O [Compound 5l, N-Cyclohexyl-2,3-dihydroxybenzamide] | > 100 µM | > 100 µM | –
23 | O=C(NCC1CCCCC1)c1cccc(O)c1O [Compound 5m, N-(Cyclohexylmethyl)-2,3-dihydroxybenzamide] | – | > 100 µM | –
24 | CNC(=O)Cc1ccccc1CNC(=O)c1cccc(O)c1O [Compound 5n, 2,3-Dihydroxy-N-(2-(2-(methylamino)-2-oxoethyl)benzyl)benzamide] | – | > 100 µM | –
25 | CNC(=O)c1cc(F)ccc1CNC(=O)c1cccc(O)c1O [Compound 5o, N-(4-Fluoro-2-(methylcarbamoyl)benzyl)-2,3-dihydroxybenzamide] | – | > 100 µM | IN / strand transfer inhibitory potency [1]: loss of IN inhibitory potency
26 | O=C(NCc1ccc(F)cc1)c1cc(S(=O)(=O)N2CCCCC2)cc(O)c1O [Compound 5p, N-(4-Fluoro-benzyl)-2,3-dihydroxy-5-(piperidine-1-sulfonyl)-benzamide] | – | – | selectivity for the strand transfer over the 3′-processing reaction ([1]; ratio of IC50 values): more than 40 fold
27 | CNS(=O)(=O)c1cc(O)c(O)c(C(=O)NCc2ccc(F)cc2)c1 [Compound 5q, N-(4-Fluorobenzyl)-2,3-dihydroxy-5-(N-methylsulfamoyl)benzamide] | – | > 100 µM | –
28 | O=C(NCc1ccco1)c1cc(S(=O)(=O)N2CCCCC2)cc(O)c1O [Compound 5s, N-(Furan-2-ylmethyl)-2,3-dihydroxy-5-(piperidin-1-ylsulfonyl)benzamide] | – | > 100 µM | –
29 | O=C(NCc1cccs1)c1cc(S(=O)(=O)N2CCCCC2)cc(O)c1O [Compound 5v, N-(Thiophen-2-ylmethyl)-2,3-dihydroxy-5-(piperidin-1-ylsulfonyl)benzamide] | – | > 100 µM | –
30 | CS(=O)(=O)Nc1cc(O)c(O)c(C(=O)NCc2ccc(F)cc2)c1 [Compound 5w, N-(4-Fluorobenzyl)-2,3-dihydroxy-5-(methylsulfonamido)benzamide] | – | > 100 µM | –
31 | CN(C)Cc1ccc(C(=O)NCc2ccc(F)cc2)c(O)c1O [Compound 6a, 4-((Dimethylamino)methyl)-N-(4-fluorobenzyl)-2,3-dihydroxybenzamide] | – | > 100 µM | –
32 | CN(C)Cc1ccc(C(=O)NCc2ccco2)c(O)c1O [Compound 6b, 4-((Dimethylamino)methyl)-N-(furan-2-ylmethyl)-2,3-dihydroxybenzamide] | – | > 100 µM | –
33 | COc1cc(S(=O)(=O)N2CCCCC2)cc(C(=O)NCc2ccco2)c1O [Compound 6c, N-(Furan-2-ylmethyl)-2-hydroxy-3-methoxy-5-(piperidin-1-ylsulfonyl)benzamide] | > 100 µM | > 100 µM | IN / strand transfer inhibitory potency [1]: severe loss of potency
34 | Nc1cccc(C(=O)NCc2ccco2)c1O [Compound 6d, 3-Amino-N-(furan-2-ylmethyl)-2-hydroxybenzamide] | > 100 µM | > 100 µM | IN / strand transfer inhibitory potency [1]: severe loss of potency
